Measured values reported in US9598441B2, “Therapeutic compounds and methods” (Wayne State University, priority 2011, dated 2017).

Experiments:
[1] = target: T1, CARP-1 binding with APC-2 (Homo sapiens, UniProt Q8IX12); assay: Fluorescence polarization assay (FPA) for inhibitors of CARP-1-APC-2 binding; conditions: fluorescein-tagged A-epitope peptide and Gst-APC-2 (685-754)
T1 construct: made in house; host or cells: E. coli BL-21 (DE3)
T1 sequence (Q8IX12 951-980 limits assumed): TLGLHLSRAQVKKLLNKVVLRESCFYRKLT
Method: Although, several formats for FP are indicated in the published literature (Inglese, J., Johnson, R. L., Simeonov, A., Xia, M., Zheng, W., Austin, C. P., Auld, D. S. (2007) Nat. Chem. Biol. 3(8), 466-79), the assays using 96-well or higher density plates are often and routinely employed. Optimization of FP for HTS involves several steps including the determination of Kd values, optimization of the buffer conditions, incubation and measurement times, and determination of the DMSO tolerance of the assay. Our goal was to minimize variation and to aim for adequate signal:background without adversely effecting the sensitivity of the assay. The FP polarization values in milli-polarization (mp) were measured to determine changes in the mp (Amp=mp of bound peptide mp of free peptide), the Kd and Ki constants of the binding. A 30-mer CARP-1 peptide that contained APC-2-binding epitope (A-epitope peptide) was commercially synthesized (US Biologicals, MA), labeled with fluorescein at the N-terminus, and purified to >98% purity. Increasing concentrations of A-epitope peptide were incubated with the indicated quantities of the affinity-purified Gst-APC-2 (685-754) protein in assay buffer containing 0.01% triton-X100. Affinity-purified Gst-NEMO (221-317) was included as a negative control. The Δmp was measured by excitation at 485 nm and emission at 538 nm.
The kinetics of CARP-1 binding with APC-2 was determined, and whether this binding could be exploited to identify SMIs of CARP-1-APC-2 interaction was investigated. For this purpose, a FPA utilizing the affinity-purified Gst-APC-2 (685-754) protein and the fluorescein-tagged A-epitope peptide was developed as detailed in methods. […] The signal to background ratio of 6 underscored robustness of this assay. Since, the quality (precision) and suitability of the FPA for HTS is usually defined by the Z′ factor (25, 40), we utilized the positive and negative control mean signals (μc+ and μc−, respectively) and their standard deviations (σc+ and σc−) to calculate the Z′ factor using the equation Z′=1−[3(σc++σc−)/(μc+−μc−)]. […]

[2] = test system: immortalized, non-tumorigenic mammary epithelial MCF-10A cells; assay: MTT cell viability assay, non-tumorigenic cells; assay type: cell-based, human
Method: Logarithmically growing cells were either untreated or treated with different agents for various time periods. The cells were lysed to prepare protein extracts. IP was carried out by incubating approximately 1 mg of the protein lysate with appropriate antibodies, and the immunoprecipitates or cell lysates were then electrophoresed on 9-12% SDS-polyacrylamide gels, and transferred to nitrocellulose membranes. The membranes were subsequently probed with various antibodies to determine expression/presence of the corresponding proteins. The cell growth inhibition was assessed by using MTT assay. Briefly, MTT (3-[4,5-Dimethylthiazol-2-yl]-2,5diphenyltetrazolium bromide) was dissolved in sterile 1×PBS to prepare a stock solution of 5 mg/ml. […] The assessment of the live cells was derived by measuring the absorbance of the converted dye at wavelength of 570 nm.
To test whether CFMs that interfere with CARP-1 binding with APC-2 modulate cell growth, HBC, colon, prostate, pancreatic cancer, MPM and lymphoma cells, as well as the immortalized, mammary epithelial MCF-10A cells were utilized. The cells were either treated with vehicle (DMSO) or various doses of the respective compound for a period of 72 h, and percent of live/viable cells for each compound was determined relative to the untreated controls as described in Methods.

[3] = test system: HBC cells transfected with scrambled, CARP-1 or Cdh1 SiRNAs; assay: MTT assay in SiRNA-transfected cells; assay type: cell-based, human
Method: Logarithmically growing cells were either untreated or treated with different agents for various time periods. The cells were lysed to prepare protein extracts. IP was carried out by incubating approximately 1 mg of the protein lysate with appropriate antibodies, and the immunoprecipitates or cell lysates were then electrophoresed on 9-12% SDS-polyacrylamide gels, and transferred to nitrocellulose membranes. The membranes were subsequently probed with various antibodies to determine expression/presence of the corresponding proteins. The cell growth inhibition was assessed by using MTT assay. Briefly, MTT (3-[4,5-Dimethylthiazol-2-yl]-2,5diphenyltetrazolium bromide) was dissolved in sterile 1×PBS to prepare a stock solution of 5 mg/ml. The solution was subsequently filtered through 0.2 μm filter and stored at 2-8° C. 4−5×10^2 cells were seeded in 96-well plates. After 72 h incubation with or without different agents, MTT stock solution was added to each culture being assayed to equal one tenth the original culture volume, followed by incubation of cells at 37° C. for another 2 h. At the end of the incubation, the media was removed and cells were treated with 100-200 μl of DMSO to solubilize the dye. The assessment of the live cells was derived by measuring the absorbance of the converted dye at wavelength of 570 nm.
To test this possibility, cells were transfected with 100 nM each of the CARP-1 or the scrambled SiRNAs as detailed in methods. The SiRNA-transfected cells were then either untreated or treated with 20 μM CFM-4 for 24 h followed by determination of levels of CARP-1 and cyclin B1 proteins. […] In a separate experiment, cells were similarly transfected with CARP-1 SiRNA or scrambled SiRNAs followed by treatment with CFM-4 essentially as in FIG. 6A, and cell viabilities were determined by the MTT assay. […] In a separate experiment, cells were similarly transfected with Cdh1 SiRNA or scrambled SiRNAs followed by treatment with CFM-4 essentially as in FIG. 6C, and cell viabilities were determined by the MTT assay.

## Cc1cc(Br)cc2c1NC(=O)/C2=C1\SC(=S)NC1=O [CFM-1, (Z)-5-(5-bromo-7-methyl-2-oxoindolin-3-ylidene)-2-thioxothiazolidin-4-one]
[1]
  IC50: 4.1 µM

## O=C1N(Cc2ccccc2Cl)c2ccccc2C12NN=C(c1ccccc1)S2 (stereo not drawn) [CFM-4, 1-(2-chlorobenzyl)-5′-phenyl-3′H-spiro[indoline-3,2′-[1,3,4]thiadiazol]-2-one]
[1]
  IC50: 0.75 µM
[2]
  growth of MCF-10A cells (MTT): failed to attenuate growth
[3]; 20 μM CFM-4, 24 h
  growth of cells transfected with scrambled SiRNAs (MTT): suppressed growth
[3]; CARP-1 knockdown, 20 μM CFM-4, 24 h
  growth inhibition in CARP-1 SiRNA-transfected cells (MTT): blocked CFM-4-dependent inhibition of cell growth
[3]; Cdh1 knockdown
  growth inhibition in Cdh1 SiRNA-transfected cells (MTT): blocked CFM-4-dependent inhibition of HBC cell growth
